The record followed here is patent publication US10590078B2, “Sodium channel blockers” (Daewoong Pharmaceutical Co., Ltd., priority 2015, dated 2020).

This assay has as its target human sodium ion channel 1.7 (hNav1.7) (Homo sapiens, UniProt Q15858). The assay can be described thus: Blocking effect against sodium ion channel Nav1.7, IonFlux16 auto patch clamp in hNav1.7 HEK293 cells. Conditions: hNav1.7 HEK293 cells; inhibition of peak current after 50 seconds treatment; eight concentrations; read-out: IC50. Format: cell-based.

Sequence of human sodium ion channel 1.7 (hNav1.7) (Q15858 whole entry): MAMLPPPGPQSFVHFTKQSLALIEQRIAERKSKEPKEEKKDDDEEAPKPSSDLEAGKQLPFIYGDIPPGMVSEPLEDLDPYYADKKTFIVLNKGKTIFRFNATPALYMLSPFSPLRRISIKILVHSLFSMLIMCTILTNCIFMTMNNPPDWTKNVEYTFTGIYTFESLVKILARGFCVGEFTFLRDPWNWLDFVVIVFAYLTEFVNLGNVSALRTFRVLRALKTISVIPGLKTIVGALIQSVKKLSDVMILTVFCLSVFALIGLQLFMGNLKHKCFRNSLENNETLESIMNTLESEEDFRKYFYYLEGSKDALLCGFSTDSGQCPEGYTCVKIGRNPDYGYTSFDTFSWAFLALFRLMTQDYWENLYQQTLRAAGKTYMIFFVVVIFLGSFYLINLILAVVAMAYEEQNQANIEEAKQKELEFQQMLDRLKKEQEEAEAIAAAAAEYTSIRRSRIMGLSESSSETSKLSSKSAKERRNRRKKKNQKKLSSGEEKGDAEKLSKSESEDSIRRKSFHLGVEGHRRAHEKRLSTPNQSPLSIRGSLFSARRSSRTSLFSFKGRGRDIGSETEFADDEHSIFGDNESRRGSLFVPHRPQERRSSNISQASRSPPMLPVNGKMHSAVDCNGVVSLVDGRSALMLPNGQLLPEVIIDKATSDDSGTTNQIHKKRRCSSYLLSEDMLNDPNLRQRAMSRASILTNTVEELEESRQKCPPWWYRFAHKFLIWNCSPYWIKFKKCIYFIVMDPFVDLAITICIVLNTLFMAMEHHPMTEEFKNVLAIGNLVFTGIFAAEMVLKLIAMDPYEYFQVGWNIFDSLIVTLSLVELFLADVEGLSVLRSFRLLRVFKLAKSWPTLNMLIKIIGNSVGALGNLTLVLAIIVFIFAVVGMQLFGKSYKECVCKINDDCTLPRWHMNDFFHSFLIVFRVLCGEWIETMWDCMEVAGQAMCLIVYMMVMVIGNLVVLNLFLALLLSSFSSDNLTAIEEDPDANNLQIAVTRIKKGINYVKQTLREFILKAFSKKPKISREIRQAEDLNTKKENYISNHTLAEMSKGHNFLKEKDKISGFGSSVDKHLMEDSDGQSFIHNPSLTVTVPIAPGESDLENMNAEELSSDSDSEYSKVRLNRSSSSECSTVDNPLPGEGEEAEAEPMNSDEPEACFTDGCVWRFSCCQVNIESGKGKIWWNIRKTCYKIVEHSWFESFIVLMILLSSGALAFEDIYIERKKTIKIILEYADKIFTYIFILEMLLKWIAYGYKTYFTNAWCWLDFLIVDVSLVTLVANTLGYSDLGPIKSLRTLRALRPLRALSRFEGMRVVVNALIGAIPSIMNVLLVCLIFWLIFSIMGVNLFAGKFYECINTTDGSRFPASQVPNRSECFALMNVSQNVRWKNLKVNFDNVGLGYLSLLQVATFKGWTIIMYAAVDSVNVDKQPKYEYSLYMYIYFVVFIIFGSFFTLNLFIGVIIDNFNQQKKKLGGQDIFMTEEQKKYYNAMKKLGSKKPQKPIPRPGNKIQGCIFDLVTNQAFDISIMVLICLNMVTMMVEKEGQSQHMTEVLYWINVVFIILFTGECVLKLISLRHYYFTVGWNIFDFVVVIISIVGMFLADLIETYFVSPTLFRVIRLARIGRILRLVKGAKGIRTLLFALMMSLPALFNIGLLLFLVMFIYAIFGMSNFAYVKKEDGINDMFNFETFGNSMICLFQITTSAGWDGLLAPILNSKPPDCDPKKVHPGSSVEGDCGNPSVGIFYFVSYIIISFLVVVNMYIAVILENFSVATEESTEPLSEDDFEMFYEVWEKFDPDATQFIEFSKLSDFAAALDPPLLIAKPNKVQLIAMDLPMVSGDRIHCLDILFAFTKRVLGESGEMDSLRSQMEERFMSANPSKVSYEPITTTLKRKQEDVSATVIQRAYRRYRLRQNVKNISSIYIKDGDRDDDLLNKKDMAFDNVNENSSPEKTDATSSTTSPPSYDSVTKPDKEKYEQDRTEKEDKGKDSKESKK

In the case of `COc1ccc2c(c1)c(Cl)cn2-c1cc(F)c(C(=O)NS(C)(=O)=O)cc1Cl` [Example 268, 5-chloro-4-(3-chloro-5-methoxy-1H-indol-1-yl)-2-fluoro-N-(methylsulfonyl)benzamide], the IC50 amounted to 0.608 µM.

`CS(=O)(=O)NC(=O)c1cc(Cl)c(-n2cc(Cl)c3cc(OCc4ccccc4)ccc32)cc1F` [Example 269, 4-(5-(benzyloxy)-3-chloro-1H-indol-1-yl)-5-chloro-2-fluoro-N-(methylsulfonyl)benzamide]: the IC50 came out at 0.142 µM.

As for `CS(=O)(=O)NC(=O)c1cc(Cl)c(-n2cc(Cl)c3c(OCc4ccccc4)cccc32)cc1F` [Example 270, 4-(4-(benzyloxy)-3-chloro-1H-indol-1-yl)-5-chloro-2-fluoro-N-(methylsulfonyl)benzamide], the IC50 amounted to 0.187 µM.

For `CS(=O)(=O)NC(=O)c1cc(Cl)c(-n2cc(Cl)c3ccc(OCc4ccccc4)cc32)cc1F` [Example 271, 4-(6-(benzyloxy)-3-chloro-1H-indol-1-yl)-5-chloro-2-fluoro-N-(methylsulfonyl)benzamide], the IC50 amounted to 2.13 µM.

Turning to `CS(=O)(=O)NC(=O)c1cc(Cl)c(-n2cc(-c3ccc(Cl)cc3)c3cc(Cl)ccc32)cc1F` [Example 272, 5-chloro-4-(5-chloro-3-(4-chlorophenyl)-1H-indol-1-yl)-2-fluoro-N-(methylsulfonyl)benzamide], the IC50 is 0.37 µM.

`CS(=O)(=O)NC(=O)c1cc(Cl)c(-n2cc(-c3ccc(Cl)nc3)c3cc(Cl)ccc32)cc1F` [Example 273, 5-chloro-4-(5-chloro-3-(6-chloropyridin-3-yl)-1H-indol-1-yl)-2-fluoro-N-(methylsulfonyl)benzamide]: the IC50 is 0.18 µM.

As for `CS(=O)(=O)NC(=O)c1ccc(-n2cc(-c3ccc(Cl)cc3)c3cc(Cl)ccc32)nc1` [Example 274, 6-(5-chloro-3-(4-chlorophenyl)-1H-indol-1-yl)-N-(methylsulfonyl)nicotinamide], the IC50 was found to be 5.96 µM.

Consider `CS(=O)(=O)NC(=O)c1ccc(-n2cc(-c3ccc(F)cc3)c3cc(Cl)ccc32)nc1` [Example 275, 6-(5-chloro-3-(4-fluorophenyl)-1H-indol-1-yl)-N-(methylsulfonyl)nicotinamide], for which the IC50 was 1.23 µM.

On to `O=S(=O)(Nc1cscn1)c1cc(Cl)c(-n2nc(Cl)c3cc(-c4ccccc4)ccc32)cc1F` [Example 276, 5-chloro-4-(3-chloro-5-phenyl-1H-indazol-1-yl)-2-fluoro-N-(thiazol-4-yl)benzenesulfonamide], for which the IC50 was more than 10 µM.

In the case of `Cc1nn(-c2cc(F)c(S(=O)(=O)Nc3cscn3)cc2Cl)c2ccc(Cl)cc12` [Example 277, 5-chloro-4-(5-chloro-3-methyl-1H-indazol-1-yl)-2-fluoro-N-(thiazol-4-yl)benzenesulfonamide], the IC50 came to 0.33 µM.

On to `N#Cc1cc(S(=O)(=O)Nc2cscn2)ccc1-n1nc(Cl)c2cc(C(F)(F)F)ccc21` [Example 278, 4-(3-chloro-5-(trifluoromethyl)-1H-indazol-1-yl)-3-cyano-N-(thiazol-4-yl)benzenesulfonamide], for which the 50% inhibitory concentration (IC50) was 8.91 µM.

For `O=S(=O)(Nc1cscn1)c1cc(F)c(-n2nc(Cl)c3cc(C(F)(F)F)ccc32)cc1F` [Example 279, 4-(3-chloro-5-(trifluoromethyl)-1H-indazol-1-yl)-2,5-difluoro-N-(thiazol-4-yl)benzenesulfonamide], the IC50 was more than 10 µM.

As to `O=S(=O)(Nc1cscn1)c1cc(Cl)c(-n2nc(Cl)c3cc(C(F)(F)F)ccc32)cc1F` [Example 280, 5-chloro-4-(3-chloro-5-(trifluoromethyl)-1H-indazol-1-yl)-2-fluoro-N-(thiazol-4-yl)benzenesulfonamide], the IC50 came out at 1.08 µM.

With `O=S(=O)(Nc1ncns1)c1cc(F)c(-n2nc(Cl)c3cc(C(F)(F)F)ccc32)cc1F` [Example 281, 4-(3-chloro-5-(trifluoromethyl)-1H-indazol-1-yl)-2,5-difluoro-N-(1,2,4-thiadiazol-5-yl)benzenesulfonamide], the IC50 lay in the range of 3 to 10 µM.

On to `Cn1nccc1-c1nn(-c2cc(F)c(S(=O)(=O)Nc3cscn3)cc2Cl)c2ccc(Cl)cc12` [Example 282, 5-chloro-4-(5-chloro-3-(1-methyl-1H-pyrazol-5-yl)-1H-indazol-1-yl)-2-fluoro-N-(thiazol-4-yl)benzenesulfonamide], for which the IC50 stood at 1.65 µM.

Regarding `Cn1nccc1-c1nn(-c2cc(F)c(S(=O)(=O)Nc3ncns3)cc2Cl)c2ccc(Cl)cc12` [Example 283, 5-chloro-4-(5-chloro-3-(1-methyl-1H-pyrazol-5-yl)-1H-indazol-1-yl)-2-fluoro-N-(1,2,4-thiadiazol-5-yl)benzenesulfonamide], the IC50 was more than 3 µM.

Turning to `O=S(=O)(Nc1cscn1)c1cc(Cl)c(-n2nc(-c3cn[nH]c3)c3cc(Cl)ccc32)cc1F` [Example 284, 5-chloro-4-(5-chloro-3-(1H-pyrazol-4-yl)-1H-indazol-1-yl)-2-fluoro-N-(thiazol-4-yl)benzenesulfonamide], the IC50 was more than 10 µM.

Consider `Cn1nccc1-c1ccc2c(cnn2-c2cc(F)c(S(=O)(=O)Nc3cscn3)cc2Cl)c1` [Example 285, 5-chloro-2-fluoro-4-(5-(1-methyl-1H-pyrazol-5-yl)-1H-indazol-1-yl)-N-(thiazol-4-yl)benzenesulfonamide], for which the IC50 is more than 10 µM.

As to `Cn1nccc1-c1ccc2c(c1)c(Cl)nn2-c1cc(F)c(S(=O)(=O)Nc2cscn2)cc1Cl` [Example 286, 5-chloro-4-(3-chloro-5-(1-methyl-1H-pyrazol-5-yl)-1H-indazol-1-yl)-2-fluoro-N-(thiazol-4-yl)benzenesulfonamide], the IC50 was 3 to 10 µM.

For `O=S(=O)(Nc1cscn1)c1cc(Cl)c(-n2nc(-c3ccc(Cl)cc3F)c3cc(Cl)ccc32)cc1F` [Example 287, 5-chloro-4-(5-chloro-3-(4-chloro-2-fluorophenyl)-1H-indazol-1-yl)-2-fluoro-N-(thiazol-4-yl)benzenesulfonamide], the IC50 is 8.25 µM.

With `N#Cc1cc(Cl)c(-n2nc(-c3ccc(Cl)cc3F)c3cc(Cl)ccc32)cc1F` [Example 288, 5-chloro-4-(5-chloro-3-(4-chloro-2-fluorophenyl)-1H-indazol-1-yl)-2-fluorobenzonitrile], the IC50 is more than 10 µM.

In the case of `Fc1cc(-n2nc(-c3ccc(Cl)cc3F)c3cc(Cl)ccc32)c(Cl)cc1-c1nnn[nH]1` [Example 289, 5-chloro-3-(4-chloro-2-fluorophenyl)-1-(2-chloro-5-fluoro-4-(1H-tetrazol-5-yl)phenyl)-1H-indazole], the half-inhibitory concentration (IC50) is more than 10 µM.

Regarding `NC(=O)NNC(=O)c1cc(Cl)c(-n2nc(-c3ccc(Cl)cc3F)c3cc(Cl)ccc32)cc1F` [Example 290, 2-(5-chloro-4-(5-chloro-3-(4-chloro-2-fluorophenyl)-1H-indazol-1-yl)-2-fluorobenzoyl)hydrazine-1-carboxamide], the IC50 stood at 11.2 µM.

Regarding `O=c1[nH]nc(-c2cc(Cl)c(-n3nc(-c4ccc(Cl)cc4F)c4cc(Cl)ccc43)cc2F)[nH]1` [Example 291, 5-(5-chloro-4-(5-chloro-3-(4-chloro-2-fluorophenyl)-1H-indazol-1-yl)-2-fluorophenyl)-2,4-dihydro-3H-1,2,4-triazol-3-one], the IC50 was found to be 10.8 µM.

As to `NC(=O)c1cc(Cl)c(-n2nc(-c3ccc(Cl)cc3F)c3cc(Cl)ccc32)cc1F` [Example 292, 5-chloro-4-(5-chloro-3-(4-chloro-2-fluorophenyl)-1H-indazol-1-yl)-2-fluorobenzamide], the IC50 was more than 10 µM.

In the case of `CC(=O)NC(=O)c1cc(Cl)c(-n2nc(-c3ccc(Cl)cc3F)c3cc(Cl)ccc32)cc1F` [Example 293, N-acetyl-5-chloro-4-(5-chloro-3-(4-chloro-2-fluorophenyl)-1H-indazol-1-yl)-2-fluorobenzamide], the IC50 was more than 10 µM.

Take `O=C(Nc1nccs1)c1cc(Cl)c(-n2nc(-c3ccc(Cl)cc3F)c3cc(Cl)ccc32)cc1F` [Example 294, 5-chloro-4-(5-chloro-3-(4-chloro-2-fluorophenyl)-1H-indazol-1-yl)-2-fluoro-N-(thiazol-2-yl)benzamide]: the IC50 was more than 10 µM.

For `Cc1cnc(NC(=O)c2cc(Cl)c(-n3nc(-c4ccc(Cl)cc4F)c4cc(Cl)ccc43)cc2F)s1` [Example 295, 5-chloro-4-(5-chloro-3-(4-chloro-2-fluorophenyl)-1H-indazol-1-yl)-2-fluoro-N-(5-methylthiazol-2-yl)benzamide], the IC50 was more than 10 µM.

On to `CCOC(=O)c1cnc(NC(=O)c2cc(Cl)c(-n3nc(-c4ccc(Cl)cc4F)c4cc(Cl)ccc43)cc2F)s1` [Example 296, ethyl 2-(5-chloro-4-(5-chloro-3-(4-chloro-2-fluorophenyl)-1H-indazol-1-yl)-2-fluorobenzamido)thiazole-5-carboxylate], for which the IC50 is more than 10 µM.
